Results from US10342776B2, “Compositions and methods for controlling infections” (priority 2004, dated 2019).

Assays:
Type in all cases: cell-based
[1] = system: Lactobacillus (L. crispatis); assay: In vitro growth of L. crispatis bacteria with GML
Excerpt: (§1) Thus, it was surprising to discover that a number of other bacterial genera (see below) were highly sensitive to the direct toxic effects of GML.

Salmonella = assay: Direct toxicity of GML to Salmonella
Excerpt: as §1

[2] = system: Gardnerella vaginalis (clinical isolate); assay: G. vaginalis liquid culture with GML in the presence of 10% fetal calf serum; settings: for Cells/ml (×10^7) at 24 hours: 10% fetal calf serum
Procedure: Cells (1.2×10^7/ml in a total volume of 25 ml of dialyzable beef heart medium) of a recent clinical isolate of the gram negative rod Gardnerella vaginalis in vitro were cultured for various lengths of time with various concentrations of GML. At the various time points, the concentration of bacteria in the cultures were determined by colony counting on chocolate agar plates. GML at concentrations as low as 5 μg/ml were bactericidal to G. vaginalis. […] This finding points to the likely efficacy of GML in vivo. Moreover, GML (5 μg/ml or greater) inhibited growth of G. vaginalis plated (0.1 ml at 1.2×10^7/ml) onto chocolate agar plates (Table 3; data obtained after 24 hours of culturing).

Haemophilus influenzae = assay: Kinetic study of Haemophilus influenzae growth in Todd Hewitt medium with GML, CFU/ml; settings: GML 50 μg/ml or 100 μg/ml; liquid culture up to 24 hours
Procedure: The strain was inoculated (at a concentration of 1.2×10^6 CFU/ml) into 50 ml of Todd Hewitt medium containing various concentrations of GML. The cultures were grown for 24 hours in an atmosphere of 7% carbon dioxide (balance air) with shaking at 100 RPM. At designated times samples were removed, and colony forming units (CFU) per milliliter were determined by plate counts on chocolate agar plates.

[3] = system: Haemophilus influenzae (two clinical isolates); assay: Haemophilus influenzae growth on chocolate agar plates with GML
Procedure: G. vaginalis was formerly designated Haemophilus vaginalis. This consideration raised the possibility that GML would inhibit the growth of Haemophilus influenzae. Two recent clinical isolates of encapsulated (capsule type not typable) Haemophilus influenzae (0.1 ml at 1.0×10^7/ml plated) organisms were tested for ability to grow on chocolate agar plates with no or various concentrations of GML (Table 4; data obtained after 24 of culture). The growth of both strains was inhibited at GML concentrations of 10 μg/ml or greater.

[4] = system: Candida albicans (11 clinical isolates, hyphal phase); assay: Hyphal phase Candida albicans growth on Todd Hewitt agar plates containing GML; settings: 48 hours
Procedure: Candida albicans microorganisms were cultured on a Todd Hewitt agar plate for 48 hours at 37° C. in the presence of 7% CO2 to promote growth of hyphal forms. This plate was used to streak the microorganisms for isolation on Todd Hewitt agar plates containing 0, 10, 20, 50, or 100 μg/mL of GML. The plates were incubated for 48 hours and examined for Candida growth. The experiment was done in duplicate plates. The results obtained with duplicate plates were the same.
Organisms (at the hyphal phase) of 11 clinical isolates of Candida albicans were separately streaked on Todd Hewitt agar plates containing various concentrations of GML. The experiments were performed in duplicate. […] In contrast, the organisms grew on plates containing 0, 10 and 20 μg/ml.

[5] = GML concentrations up to 100 μg/ml

SMILES: CCCCCCCCCCCC(=O)OCC(O)CO (stereo not shown) [GML, glycerol monolaurate]
- resistance to direct toxicity by GML [1]: relatively resistant
- effect on in vitro growth ([1]; GML concentrations up to 50 μg/ml): had no effect
- effect on in vitro growth [1, 5]: delayed (but did not stop) its growth
- effect on stationary phase survival [1, 5]: extended their stationary phase survival
- resistance to direct toxicity by GML (Salmonella): relatively resistant
- Cells/ml (×10^7) at 24 hours ([2]; GML 1 μg/ml): 210 Cells/ml (×10^7)
- Cells/ml (×10^7) at 24 hours ([2]; GML 5 μg/ml): 201 Cells/ml (×10^7)
- Cells/ml (×10^7) at 24 hours ([2]; GML 10 μg/ml): 160 Cells/ml (×10^7)
- Cells/ml (×10^7) at 24 hours ([2]; GML 20 μg/ml): 88 Cells/ml (×10^7)
- Cells/ml (×10^7) at 24 hours ([2]; GML 50 μg/ml): 1.8 Cells/ml (×10^7)
- Cells/ml (×10^7) at 24 hours ([2]; GML 100 μg/ml): <0.03 Cells/ml (×10^7)
- inhibition of growth of G. vaginalis ([2]; medium supplemented with fetal calf serum): effective in inhibiting the growth
- growth of H. influenza organisms (Haemophilus influenzae): inhibited the growth
- Growth Characteristics (Strain 1) ([3]; GML 1 μg/ml): Confluent growth
- Growth Characteristics (Strain 2) ([3]; GML 1 μg/ml): Confluent growth
- Growth Characteristics (Strain 1) ([3]; GML 5 μg/ml): Confluent growth
- Growth Characteristics (Strain 2) ([3]; GML 5 μg/ml): Confluent growth
- Growth Characteristics (Strain 1) ([3]; GML 10 μg/ml): No visible growth
- Growth Characteristics (Strain 2) ([3]; GML 10 μg/ml): No visible growth
- Growth Characteristics (Strain 1) ([3]; GML 20 μg/ml): No visible growth
- Growth Characteristics (Strain 2) ([3]; GML 20 μg/ml): No visible growth
- Growth Characteristics (Strain 1) ([3]; GML 50 μg/ml): No visible growth
- Growth Characteristics (Strain 2) ([3]; GML 50 μg/ml): No visible growth
- Growth Characteristics (Strain 1) ([3]; GML 100 μg/ml): No visible growth
- Growth Characteristics (Strain 2) ([3]; GML 100 μg/ml): No visible growth
- GML concentration at which growth was inhibited ([3]; both strains, chocolate agar plates): ≥ 10 µg/mL
- growth on agar plates ([4]; 10 and 20 μg/ml GML): grew
- growth on agar plates ([4]; 50 and 100 μg/ml GML): failed to grow
